Experimental data taken from patent EP2508186A1, “Phenoxazinones or phenothiazones as inhibitors of amyloid formation” (Max-Delbrück-Centrum für Molekulare Medizin, priority 2011, dated 2012).

Assays:
[1] = system: Aβ42 peptides; assay: Binding to Aβ42 10-mer peptide array and short peptides; details: 04 300 µM, 33 peptides overlapping by 9 residues, colorimetric
Experimental: (§1) 2.2.5. 04 binds preferentially to hydrophobic regions in Aβ42 peptides. To define potential 04 binding regions in Aβ42 peptides an array of 33 synthetic peptides representing the complete Aβ42 sequence was prepared (Beutling, 2008) and probed for an interaction with the chemical compound. Each synthetic peptide was composed of 10 amino acids, which overlapped in sequence with the next peptide by 9 residues.
(§2) We next investigated whether the position of hydrophobic amino acids in the Aβ42 peptide sequence influences 04 binding. Two short peptides containing aromatic residues were synthesized (A: KLVFFAE, aa 16-22 of Aβ42 and B: EFAVFLK, a scrambled version of A) and 04 binding was quantified colorimetrically.

[2] = target: T1, Aβ42 peptides (Homo sapiens, UniProt P05067); assay: as above; details: dot blot, colorimetric, n = 4
T1 construct: made in house; spotted short peptides
Experimental: as §1, §2

[3] = target: T2, Aβ42 (Homo sapiens, UniProt P05067); assay: Membrane filter retardation assay (FRA) of Aβ42 aggregation; type: biochemical
T2 construct: the amyloid-β 1-42 (Aβ42) peptide
T2 sequence (P05067 672-713 limits assumed): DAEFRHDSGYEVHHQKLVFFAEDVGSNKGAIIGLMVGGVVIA
Experimental: 2.1.1. Protein aggregation. For aggregation reactions, Aβ42 stock solution (1 mM in DMSO) was diluted in phosphate buffer (100 mM sodium phosphate, 10 mM NaCl, pH 7.4) to 15 µM and incubated in 1.5 ml Eppendorf tubes (Eppendorf, Germany) at 37°C. Generation of soluble Aβ42 oligomers was performed as described (Lambert, 1998). Aβ42 DMSO stock solutions were diluted in Ham's F12 medium without phenol red (Biosource) at a final peptide concentration of 100 µM, with or without test compounds. After brief vortexing, samples were incubated at 4-6°C for 24 h. […]
2.1.2. […] Aggregates retained on the filter membrane were detected using the 6E10 antibody (1 : 5.000) (Sigma, Deisenhofen, Germany), and secondary antibodies conjugated to either horseradish peroxidase or alkaline phosphatase (Promega, Germany). […] After 30 min incubation at 37°C with proteinase K, samples were denatured and analyzed by FRA.
2.2.1 Identification of small molecules that stimulate Aβ42 aggregation. In order to find chemical compounds that promote Aβ42 amyloidogenesis, a membrane filter retardation assay (FRA) was established that allows the identification of large, insoluble protein aggregates, while monomers and small, soluble oligomers are not detected (Fig. 1). […]

[4] = target: T2, Aβ42; assay: Circular dichroism (CD) spectroscopy of Aβ42 β-sheet formation; type: biochemical; details: Aβ42 15 µM, phosphate buffer
Text: Therefore, we investigated whether 04 treatment influences the structure of Aβ42 amyloid fibrils using circular dichroism (CD) spectroscopy (Ehrnhoefer, 2008).
Next, the conversion of unstructured Aβ42 monomers into β-sheet-rich early aggregates was investigated. The change in CD signal at 218 nm over the course of 3,000 s was monitored for 04-treated and untreated Aβ42 peptides.
A monoexponential data fit yielded a time constant of τ = 150 ± 40 s for O4-treated samples, while a time constant of τ = 350 ± 30 s was obtained for untreated samples.

[5] = target: T2, Aβ42; assay: Transmission electron microscopy (TEM/AFM) of Aβ42 aggregate species; type: biochemical
Experimental: 2.1.1. Protein aggregation. For aggregation reactions, Aβ42 stock solution (1 mM in DMSO) was diluted in phosphate buffer (100 mM sodium phosphate, 10 mM NaCl, pH 7.4) to 15 µM and incubated in 1.5 ml Eppendorf tubes (Eppendorf, Germany) at 37°C. Generation of soluble Aβ42 oligomers was performed as described (Lambert, 1998). Aβ42 DMSO stock solutions were diluted in Ham's F12 medium without phenol red (Biosource) at a final peptide concentration of 100 µM, with or without test compounds. After brief vortexing, samples were incubated at 4-6°C for 24 h. Alternatively, Aβ42 oligomers were prepared as described in (Ma, 2006) by diluting DMSO stock solution to a final Aβ42 concentration of 110 µM in 10 mM HEPES buffer pH 7.4. Samples were incubated in a glass vial with a micro stir bar at 37°C for 24 h and subsequently centrifuged (Beckman Coulter Microfuge R, rotor F241.5P) at 13,000 rpm.
2.2.2. 04 promotes the assembly of seeding-competent, β-sheet-rich Aβ42 fibrils. To examine the morphology of 04-generated protein aggregates, time course experiments were carried out and evaluated by transmission electron microscopy (TEM). After an incubation period of 4 d, worm-like Aβ42 protofibrils (Walsh, 1999) with a length of ∼30-150 nm and a diameter of -5 nm were predominantly detected in untreated aggregation reactions (Fig. 2c). […] A similar result was obtained after an incubation period of 7 d (Fig. 2c). […] At the same time, the number of oligomeric structures was reduced in 04-treated aggregation reactions (p < 1*10^-4).
We then investigated whether 04 treatment influences the assembly of small Aβ42 oligomers, which are preferentially formed at low temperature in cell-free assays (Lambert, 1998). Aβ42 monomers were incubated for 24 h at 6-8°C in the presence and absence of 04 and formation of oligomers was analyzed by TEM. In agreement with previously published data soluble fractions of untreated aggregation reactions contained large numbers of predominantly spherical Aβ42 oligomers with a diameter of 5-15 nm (Fig. 3e). […] In the presence of 04 a relatively large number of long amyloid fibrils was detected in insoluble fractions, while such structures were not observed in the absence of the chemical compound. However, in pellet fractions of untreated aggregation reactions smaller protofibrillar aggregate species were detected by TEM (Fig. 3e).
Analysis of amyloid fibrils by TEM and AFM also support the antibody binding results. While untreated Aβ42 aggregates in agreement with previously published studies (Bieschke, 2005) are straight fibrils and show a plain, highly regular surface, such a fibrillar morphology was not detected with 04 treated samples (Fig. 7e and f).

time constant τ of β-sheet formation (ellipticity at 218 nm) ([4]; 04 75 µM, 37°C, monoexponential decay fit, control 350 ± 30 nm): 150 ± 40 s
time constant τ of β-sheet formation (CD signal at 218 nm) ([4]; 04 75 µM, 37°C, monoexponential fit, untreated 350 ± 30 s): 150 ± 40 s
number of oligomeric structures ([5]; Aβ42 15 µM, 04 150 µM, after 48 h, p < 1*10^-4): reduced
number of long amyloid fibrils ([5]; Aβ42 15 µM, 04 150 µM, after 48 h, untreated control 1.3%, p < 1*10^-5): 27%
length of amyloid fibrils ([5]; Aβ42 15 µM, 04 150 µM, incubation 4 d, untreated: protofibrils ∼30-150 nm): > 500 nm
spherical Aβ42 oligomers in soluble fractions (TEM) ([5]; Aβ42 100 µM, 04 10-fold molar excess, 24 h at 6-8°C in F12 medium): only very rarely detected
Structure (SMILES): O=c1cc2oc3cc(O)c(-c4ccc(O)cc4O)cc3nc-2cc1-c1ccc(O)cc1O [Compound 04, 2,8-bis-(2,4-dihydroxyphenyl)-7-hydroxy-phenoxazin-3-one]
binding to 10-mer peptide array of the Aβ42 sequence [1]: most strongly interacts with Aβ42 peptides, which contain non-polar, hydrophobic amino acids
binding to peptide A (KLVFFAE, aa 16-22) and scrambled peptide B (EFAVFLK) [2]: readily interacts with peptide A but not with the control peptide B
formation of SDS-stable insoluble Aβ42 aggregates ([3]; Aβ42 15 µM, equimolar or 5-fold molar excess of compound, detection with 6E10 antibody): promotes spontaneous assembly of Aβ42 insoluble aggregates in a concentration-dependent manner
proteinase K resistance of Aβ42 aggregates ([3]; aggregates generated 4 and 7 d at 37°C with or without 04 (15 µM), proteinase K 10-200 µg/ml, 30 min at 37°C): more proteinase K resistant than untreated aggregates
CD spectra of Aβ42 fibrils ([4]; equimolar 04, 37°C): CD spectra characteristic of β-sheet-rich amyloid structures
morphology of amyloid fibrils (TEM and AFM) ([5]; Aβ42 15 µM, 04 75 µM, 4 d non-agitated, 37°C): mostly bent amyloid fibrils with a rough, irregular surface
